Laboratory results from the NIST ThermoML archive (doi:10.1007/s10765-006-0045-2).
Values joined by “and” are separate entries in the source; they are usually repeats but may differ in a detail not shown here. Equal values may be shown once.

How the values were obtained:
[1] = 101.33 kPa, Crystal; for thermal diffusivity: laser flash method
[2] = molar heat capacity at constant pressure; details: 101.33 kPa, Resistive pulse heating

[Hf] [hafnium]
[1]
Details	thermal diffusivity
285 K	1.36e-05 m2/s
293 K	1.38e-05 m2/s
321 K	1.32e-05 m2/s
326 K	1.31e-05 m2/s
375 K	1.24e-05 m2/s
386 K	1.22e-05 m2/s
423 K	1.19e-05 m2/s
433 K	1.17e-05 m2/s
459 K	1.15e-05 m2/s
492 K	1.12e-05 m2/s
521 K	1.08e-05 m2/s
530 K	1.08e-05 m2/s
568 K	1.05e-05 m2/s
579 K	1.06e-05 m2/s
615 K	1.02e-05 m2/s
618 K	1.04e-05 m2/s
664 K	1e-05 m2/s and 1.02e-05 m2/s
714 K	9.91e-06 m2/s
715 K	9.92e-06 m2/s
760 K	9.79e-06 m2/s
767 K	9.72e-06 m2/s
817 K	9.57e-06 m2/s
825 K	9.67e-06 m2/s
862 K	9.46e-06 m2/s
874 K	9.59e-06 m2/s
914 K	9.36e-06 m2/s
919 K	9.54e-06 m2/s
962 K	9.32e-06 m2/s
965 K	9.54e-06 m2/s
1012 K	9.29e-06 m2/s
1017 K	9.54e-06 m2/s
1065 K	9.26e-06 m2/s and 9.53e-06 m2/s
1113 K	9.27e-06 m2/s
1118 K	9.59e-06 m2/s
1162 K	9.4e-06 m2/s
1174 K	9.6e-06 m2/s
1215 K	9.45e-06 m2/s
1222 K	9.65e-06 m2/s
1262 K	9.43e-06 m2/s
1277 K	9.81e-06 m2/s
1314 K	9.5e-06 m2/s
1332 K	9.85e-06 m2/s
1362 K	9.7e-06 m2/s
1370 K	1e-05 m2/s
1417 K	9.96e-06 m2/s
1430 K	1.02e-05 m2/s
1463 K	1e-05 m2/s
1472 K	1.05e-05 m2/s

Details	mass density	molar heat capacity at constant pressure
[1], 298.1 K, mass over volume	13222 kg/m3 [middle of 5 runs]	–
[2], 294 K, Crystal 2	–	25.61 J/K/mol and 25.77 J/K/mol
[2], 321 K, Crystal 2	–	25.86 J/K/mol and 26.01 J/K/mol
[2], 372 K, Crystal 2	–	26.33 J/K/mol and 26.38 J/K/mol
[2], 421 K, Crystal 2	–	26.77 J/K/mol and 26.7 J/K/mol
[2], 471 K, Crystal 2	–	27.22 J/K/mol and 27.1 J/K/mol
[2], 522 K, Crystal 2	–	27.67 J/K/mol and 27.49 J/K/mol
[2], 571 K, Crystal 2	–	28.09 J/K/mol and 27.88 J/K/mol
[2], 622 K, Crystal 2	–	28.52 J/K/mol and 28.29 J/K/mol
[2], 671 K, Crystal 2	–	28.93 J/K/mol and 28.67 J/K/mol
[2], 721 K, Crystal 2	–	29.36 J/K/mol and 29.04 J/K/mol
[2], 771 K, Crystal 2	–	29.77 J/K/mol and 29.47 J/K/mol
[2], 821 K, Crystal 2	–	30.17 J/K/mol and 29.95 J/K/mol
[2], 871 K, Crystal 2	–	30.56 J/K/mol and 30.4 J/K/mol
[2], 921 K, Crystal 2	–	30.95 J/K/mol and 30.84 J/K/mol
[2], 971 K, Crystal 2	–	31.34 J/K/mol and 31.25 J/K/mol
[2], 1021 K, Crystal 2	–	31.72 J/K/mol and 31.7 J/K/mol
[2], 1071 K, Crystal 2	–	32.08 J/K/mol and 32.11 J/K/mol
[2], 1121 K, Crystal 2	–	32.45 J/K/mol and 32.49 J/K/mol
[2], 1171 K, Crystal 2	–	32.84 J/K/mol and 32.93 J/K/mol
[2], 1221 K, Crystal 2	–	33.2 J/K/mol and 33.34 J/K/mol
[2], 1271 K, Crystal 2	–	33.54 J/K/mol and 33.73 J/K/mol
[2], 1321 K, Crystal 2	–	33.88 J/K/mol and 34.13 J/K/mol
[2], 1371 K, Crystal 2	–	34.2 J/K/mol and 34.52 J/K/mol
[2], 1421 K, Crystal 2	–	34.52 J/K/mol and 34.91 J/K/mol
[2], 1471 K, Crystal 2	–	34.84 J/K/mol and 35.25 J/K/mol
[2], 1521 K, Crystal 2	–	35.15 J/K/mol and 35.68 J/K/mol
[2], 1571 K, Crystal 2	–	35.45 J/K/mol and 36.06 J/K/mol
[2], 1621 K, Crystal 2	–	35.73 J/K/mol and 36.38 J/K/mol
[2], 1671 K, Crystal 2	–	36.02 J/K/mol and 36.7 J/K/mol
[2], 1721 K, Crystal 2	–	36.31 J/K/mol and 37.13 J/K/mol
[2], 1771 K, Crystal 2	–	36.57 J/K/mol and 37.48 J/K/mol
[2], 1821 K, Crystal 2	–	36.84 J/K/mol and 37.88 J/K/mol
[2], 1871 K, Crystal 2	–	37.09 J/K/mol and 38.29 J/K/mol
[2], 1921 K, Crystal 2	–	37.34 J/K/mol and 38.64 J/K/mol
[2], 1971 K, Crystal 2	–	37.59 J/K/mol and 40.2 J/K/mol
[2], 1983 K, Crystal 2	–	39.18 J/K/mol
[2], 2121 K, Crystal 1	–	34.13 J/K/mol and 34.29 J/K/mol
[2], 2171 K, Crystal 1	–	34.18 J/K/mol and 34.29 J/K/mol
[2], 2222 K, Crystal 1	–	34.23 J/K/mol and 34.29 J/K/mol
[2], 2272 K, Crystal 1	–	34.29 J/K/mol
[2], 2321 K, Crystal 1	–	34.41 J/K/mol
[2], 2336 K, Crystal 1	–	34.5 J/K/mol
